Assays:
[1] = test system: Phakopsora pachyrhizi (the causal agent of Asian soybean rust); test: Test A: preventive spray on soybean seedlings, visual disease rating (100 = 100% control; * 50 ppm, ** 10 ppm, *** 250 ppm); format: in vivo; settings: soybean seedlings, 100 = 100% disease control
Source text: (§1) General protocol for preparing test suspensions for Tests A-E: the test compounds were first dissolved in acetone in an amount equal to 3% of the final volume and then suspended at the desired concentration (in ppm) in acetone and purified water (50/50 mix by volume) containing 250 ppm of the surfactant […] (polyhydric alcohol esters). The resulting test suspensions were then used in Tests A-E.
(§2) The test solution was sprayed to the point of run-off on soybean seedlings. The following day the seedlings were inoculated with a spore suspension of Phakopsora pachyrhizi (the causal agent of Asian soybean rust) and incubated in a saturated atmosphere at 22° C. for 24 h, and then moved to a growth chamber at 22° C. for 8 days, after which time visual disease ratings were made.
(§3) Results for Tests A-E are given in Table A. In the Table, a rating of 100 indicates 100% disease control and a rating of 0 indicates no disease control (relative to the controls). An asterisk “*” or a double asterisk “**” or a triple asterisk “***” next to the rating value indicates a 50 ppm, 10 ppm and 250 ppm test suspension was used, respectively. A dash (-) indicates the compound was not tested.

[2] = test system: Puccinia recondita f. sp. tritici (the causal agent of wheat leaf rust); test: Test B: preventive spray on wheat seedlings, disease rating (100 = 100% control; * 50 ppm, ** 10 ppm, *** 250 ppm); format: in vivo; settings: wheat seedlings, 100 = 100% disease control
Source text: as §1
as §2, with “wheat” for “soybean”, “Puccinia recondita f. sp. tritici” for “Phakopsora pachyrhizi”, “wheat leaf” for “Asian soybean”, “20°” for “22°”, “6” for “8”, “time” for “time visual”
as §3

Row | Structure (SMILES) | Test A disease control rating ([1]; 10 ppm test suspension) [%] | Test B disease control rating ([2]; 10 ppm test suspension) [%] | Test A disease control rating ([1]; 50 ppm test suspension) [%] | Test B disease control rating ([2]; 50 ppm test suspension) [%]
1 | CCCO/C(=C\Oc1ccc(Cn2cc(C(=O)OCC)cn2)cc1)C(F)(F)F [compound 65] | 100 | 0 |  | 
2 | CCOC(=O)c1cnn(Cc2ccc(CCC(O)(O)C(F)(F)F)cc2)c1 [compound 66] |  |  | 92 | 89
3 | CCOC(=O)c1cnn(Cc2ccc(CCC3(C(F)(F)F)OCCO3)cc2)c1 [compound 67] |  |  | 65 | 0
4 | CCO/C(=C\Oc1ccc(C(=O)O)cc1)C(F)(F)F [compound 72] |  |  | 13 | 0
5 | CCO/C(=C\Oc1ccc(C(=O)OC(C)C)cc1)C(F)(F)F [compound 73] | 0 | 0 |  | 
6 | C=CCOC(=O)c1ccc(O/C=C(\OCC)C(F)(F)F)cc1 [compound 74] | 0 | 0 |  | 
7 | C#CCOC(=O)c1ccc(O/C=C(\OCC)C(F)(F)F)cc1 [compound 75] | 0 | 0 |  | 
8 | CC(C)CS(=O)(=O)NCc1ccc(OCC2(C(F)(F)F)OCCO2)cc1 [compound 76] | 0 | 0 |  | 
9 | FC(F)(F)C1(COc2ccc(CNC(=S)NC3CCCCC3)cc2)OCCO1 [compound 77] | 99 | 0 |  | 
10 | CCOC(=O)NCc1ccc(OCC2(C(F)(F)F)OCCO2)cc1 [compound 78] | 94 | 0 |  | 
11 | CCO/C(=C\Oc1ccc(C(C)=O)cc1)C(F)(F)F [compound 79] |  |  | 0 | 0
12 | CCO/C(=C\Oc1ccc(Cn2ncnc2C#N)cc1)C(F)(F)F [compound 81] | 0 | 0 |  | 
13 | CCO/C(=C\Oc1ccc(Cn2cnc(C#N)n2)cc1)C(F)(F)F [compound 82] | 97 | 0 |  | 
14 | CCOC(=O)Cc1nnn(Cc2ccc(O/C=C(\OCC)C(F)(F)F)cc2)n1 [compound 83] | 82 | 0 |  | 
15 | CCOC(=O)Cc1nnnn1Cc1ccc(O/C=C(\OCC)C(F)(F)F)cc1 [compound 84] | 0 | 0 |  | 
16 | CCO/C(=C\Oc1ccc(Cn2cncc2C(=O)OC)cc1)C(F)(F)F [compound 85] | 89 | 0 |  | 
17 | CCO/C(=C\Oc1ccc(Cn2cnc(C(=O)OC)c2)cc1)C(F)(F)F [compound 86] | 99 | 0 |  | 
18 | CCO/C(=C\Oc1ccc(Cn2ncc3cccnc32)cc1)C(F)(F)F [compound 87] | 0 | 0 |  | 
19 | CCO/C(=C\Oc1ccc(Cn2cc(C(=O)OC(C)(C)C)cn2)cc1)C(F)(F)F [compound 89] | 0 | 0 |  | 

Row | Structure (SMILES) | Test A disease control rating ([1]; 10 ppm test suspension) [%] | Test B disease control rating ([2]; 10 ppm test suspension) [%] | Test A disease control rating ([1]; 50 ppm test suspension) [%] | Test B disease control rating ([2]; 50 ppm test suspension) [%]
20 | CCOC(=O)c1cc(OC)n(Cc2ccc(O/C=C(\OCC)C(F)(F)F)cc2)n1 [compound 90] | 100 | 0 |  | 
21 | CCO/C(=C\Oc1ccc(Cn2cc(C(=O)OC)c3ccccc32)cc1)C(F)(F)F [compound 91] | 0 | 0 |  | 
22 | CCO/C(=C\Oc1ccc(CN2OCC(C)(C)C2=O)cc1)C(F)(F)F [compound 92] | 0 | 0 |  | 
23 | O=C(O)c1cnn(Cc2ccc(OCC3(C(F)(F)F)OCCO3)cc2)c1 [compound 93] | 96 | 0 |  | 
24 | CCCOC(=O)c1ccc(O/C=C(\OCC)C(F)(F)F)cc1 [compound 94] | 0 | 0 |  | 
25 | CCOC(=O)c1ccc(O/C=C(\OCC)C(F)(F)F)cc1 [compound 95] | 0 | 0 |  | 
26 | CCOC(=O)C=CCOc1ccc(O/C=C(\OCC)C(F)(F)F)cc1 [compound 96] | 13 | 0 |  | 
27 | CCOC(=O)C=CCOc1ccc(OCC(O)(O)C(F)(F)F)cc1 [compound 97] |  |  | 94 | 0
28 | CCO/C(=C\Oc1ccc(C(N)=O)cc1)C(F)(F)F [compound 99] | 0 | 80 |  | 
29 | CCO/C(=C\Oc1ccc(C(=O)NC2CC2)cc1)C(F)(F)F [compound 100] | 0 | 0 |  | 
30 | CCO/C(=C\Oc1ccc(C(=O)NC(C)C)cc1)C(F)(F)F [compound 101] | 0 | 0 |  | 
31 | C#CCNC(=O)c1ccc(O/C=C(\OCC)C(F)(F)F)cc1 [compound 102] | 0 | 0 |  | 
32 | C=CCNC(=O)c1ccc(O/C=C(\OCC)C(F)(F)F)cc1 [compound 103] | 0 | 0 |  | 
33 | CCCNC(=O)c1ccc(O/C=C(\OCC)C(F)(F)F)cc1 [compound 104] | 0 | 80 |  | 
34 | CCO/C(=C\Oc1ccc(C(=O)NC)cc1)C(F)(F)F [compound 105] | 0 | 68 |  | 
35 | CCO/C(=C\Oc1ccc(Cn2cc(C(=O)NCC(F)(F)F)cn2)cc1)C(F)(F)F [compound 106] | 0 | 0 |  | 
36 | CCO/C(=C\Oc1ccc(Cn2cc(C(=O)NCC#N)cn2)cc1)C(F)(F)F [compound 107] | 0 | 0 |  | 
37 | CCO/C(=C\Oc1ccc(CN)cc1)C(F)(F)F [compound 110] |  |  | 79 | 0
38 | CCOC(=O)NCc1ccc(O/C=C(\OCC)C(F)(F)F)cc1 [compound 111] | 0 | 0 |  | 

Row | Structure (SMILES) | Test A disease control rating ([1]; 10 ppm test suspension) [%] | Test B disease control rating ([2]; 10 ppm test suspension) [%] | Test A disease control rating ([1]; 50 ppm test suspension) [%] | Test B disease control rating ([2]; 50 ppm test suspension) [%]
39 | CC(C)COC(=O)NCc1ccc(OCC2(C(F)(F)F)OCCO2)cc1 [compound 112] | 0 | 0 |  | 
40 | CCO/C(=C\Oc1ccc(CNC(=O)CC(F)(F)F)cc1)C(F)(F)F [compound 113] | 0 | 0 |  | 
41 | CCO/C(=C\Oc1ccc(CNC(=O)C(C)OC)cc1)C(F)(F)F (stereo not shown) [compound 114] |  |  | 44 | 0
42 | CCO/C(=C\Oc1ccc(Cn2cc(C(=O)O)cn2)cc1)C(F)(F)F [compound 116] | 100 | 0 |  | 
43 | CCO/C(=C\Oc1ccc(Cn2cc(C(=O)NCC3CC3)cn2)cc1)C(F)(F)F [compound 117] | 23 | 0 |  | 
44 | CCOC(=O)c1cnn(Cc2ccc(O/C=C(\OCC)C(F)(F)F)cc2)n1 [compound 119] | 97 | 0 |  | 
45 | CCOC(=O)c1cn(Cc2ccc(O/C=C(\OCC)C(F)(F)F)cc2)nn1 [compound 121] | 100 | 0 |  | 
46 | CCO/C(=C\Oc1ccc(Cn2ncnc2C(=O)OC)cc1)C(F)(F)F [compound 122] | 0 | 0 |  | 
47 | CCO/C(=C\Oc1ccc(Cn2cnc(C(=O)OC)n2)cc1)C(F)(F)F [compound 123] | 98 | 0 |  | 
48 | CCCCOC(=O)c1cnn(Cc2ccc(OCC3(C(F)(F)F)OCCO3)cc2)c1 [compound 125] | 100 | 0 |  | 
49 | CCO/C(=C\Oc1ccc(Cc2nc(C(=O)NCC(F)(F)F)cs2)cc1)C(F)(F)F [compound 129] | 100 | 0 |  | 
50 | CCO/C(=C\Oc1ccc(Cc2nc(C(=O)NCC3CC3)cs2)cc1)C(F)(F)F [compound 130] | 100 | 0 |  | 
51 | CCOC(=O)c1cnn(CCc2ccc(OCC(O)(O)C(F)(F)F)cc2)c1 [compound 131] |  |  | 99 | 86
52 | CCOC(=O)c1cnn(CCc2ccc(OCC3(C(F)(F)F)OCCO3)cc2)c1 [compound 133] | 79 | 0 |  | 
53 | O=C(OCC(F)(F)F)c1cnn(Cc2ccc(OCC3(C(F)(F)F)OCCO3)cc2)c1 [compound 134] | 89 | 32 |  | 
54 | CCOC(=O)c1csc(Cc2ccc(OCC3(C(F)(F)F)OCCO3)cc2)n1 [compound 137] | 79 | 0 |  | 
55 | CCO/C(=C\Oc1ccc(Cn2cc(C(=O)OC(C)C)cn2)cc1)C(F)(F)F [compound 139] | 100 | 0 |  | 
56 | CCOC(=O)c1cnn(Cc2ccc(C/C=C(\OCC)C(F)(F)F)cc2)c1 [compound 140] | 98 | 23 |  | 

— patent US20240122180A1, “FUNGICIDAL HALOMETHYL KETONES AND HYDRATES AND THEIR MIXTURES” (FMC Corporation, priority 2020, published 2024)
